# Molecular target: T1, Promotilin (Oryctolagus cuniculus, UniProt P27114)
# T1 sequence (P27114 whole entry): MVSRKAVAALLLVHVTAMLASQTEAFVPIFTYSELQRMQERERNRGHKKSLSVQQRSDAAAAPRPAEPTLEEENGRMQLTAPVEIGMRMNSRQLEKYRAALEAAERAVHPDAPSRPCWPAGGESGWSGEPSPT
row,Ki [µM],Structure (SMILES)
1,0.158,C[N+](C)(C)CCOC(N)=O [(2-Hydroxyethyl)trimethyl ammonium chloride carbamate]
2,1,"CC[C@H]1OC(=O)[C@H](C)[C@@H](O[C@H]2C[C@@](C)(OC)[C@@H](O)[C@H](C)O2)[C@H](C)[C@@H](O[C@H]2O[C@@H](C)C[C@@H](N(C)C)[C@@H]2O)[C@](C)(O)C[C@@H](C)C(=O)[C@H](C)[C@@H](O)[C@]1(C)O [(3R,4S,5S,6R,7R,9R,11R,12R,13S,14R)-6-{[(2R,3S,4R,6S)-4-(dimethylamino)-3-hydroxy-6-methyloxan-2-yl]oxy}-14-ethyl-7,12,13-trihydroxy-4-{[(2R,4R,5S,6S)-5-hydroxy-4-methoxy-4,6-dimethyloxan-2-yl]oxy}-3,5,7,9,11,13-hexamethyl-1-oxacyclotetradecane-2,10-dione]"
3,0.00398,CC[C@H](C)[C@H](NC(=O)[C@@H]1CCCN1C(=O)[C@@H](NC(=O)[C@@H](N)Cc1ccccc1)C(C)C)C(=O)N[C@@H](Cc1ccccc1)C(=O)N[C@H](C(=O)N[C@@H](Cc1ccc(O)cc1)C(=O)NCC(=O)N[C@@H](CCC(=O)O)C(=O)N[C@@H](CC(C)C)C(=O)N[C@@H](CCC(N)=O)C(=O)N[C@@H](CCCNC(=N)N)C(=O)N[C@@H](CCSC)C(=O)N[C@@H](CCC(N)=O)C(=O)N[C@@H](CCC(=O)O)C(=O)N[C@@H](CCCCN)C(=O)N[C@@H](CCC(=O)O)C(=O)N[C@@H](CCCNC(=N)N)C(=O)N[C@@H](CC(N)=O)C(=O)N[C@@H](CCCCN)C(=O)NCC(=O)N[C@@H](CCC(N)=O)C(=O)O)[C@@H](C)O [CAS_52906-92-0]
4,0.0316,CC[C@H]1OC(=O)[C@H](C)[C@@H](O[C@H]2C[C@@](C)(OC)[C@@H](O)[C@H](C)O2)[C@H](C)[C@@H](O[C@@H]2O[C@H](C)C[C@H](N(C)C(C)C)[C@H]2O)[C@@]2(C)CC(C)=C(O2)[C@H](C)C(=O)[C@]1(C)OC [Mitemcinal]
